Data: publication PMC11786100, “Chronic GIPR agonism results in pancreatic islet GIPR functional desensitisation” (Molecular Metabolism, 2025)

Experiments:
Assay type in all cases: cell-based
mouse SNAP-tagged GIPR = biological target: T1, mouse SNAP-tagged GIPR (Mus musculus, UniProt Q0P543); assay: β-arrestin-2 activation assay (Borealis sensor) in AD-293 cells; conditions: 1 μM, 30-minute stimulation, n = 5–6
T1 construct: host or cells: AD-293
T1 sequence (Q0P543 19-460): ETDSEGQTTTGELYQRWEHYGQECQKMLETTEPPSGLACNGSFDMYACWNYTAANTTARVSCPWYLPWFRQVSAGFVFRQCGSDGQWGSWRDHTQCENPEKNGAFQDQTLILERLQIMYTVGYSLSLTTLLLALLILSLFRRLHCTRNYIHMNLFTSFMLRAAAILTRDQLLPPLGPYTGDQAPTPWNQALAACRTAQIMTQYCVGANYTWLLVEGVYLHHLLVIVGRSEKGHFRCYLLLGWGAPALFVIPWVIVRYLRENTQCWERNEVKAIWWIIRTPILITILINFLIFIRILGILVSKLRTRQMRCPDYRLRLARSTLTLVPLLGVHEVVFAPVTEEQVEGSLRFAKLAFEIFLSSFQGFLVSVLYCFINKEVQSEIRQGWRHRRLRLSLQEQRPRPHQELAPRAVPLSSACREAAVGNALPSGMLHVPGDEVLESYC
Description: AD-293 cells were added to a 96-well plate and maintained in 200 μL complete DMEM. 150 ng of mouse or human SNAP-tagged plasmid GIPR or GLP-1R DNA, 2 μL of Borealis β-arrestin-2 sensor (Montana Molecular, US) and 2 μL of GRK5 (Montana Molecular, US) was added to each well alongside Lipofectamine 2000 and left for 24 hours.

SNAP-tagged human GIPR = biological target: T2, SNAP-tagged human GIPR (Homo sapiens, UniProt P48546); assay: Internalisation and receptor surface expression assays in AD-293 cells; conditions: 1 μM
T2 construct: host or cells: AD-293
T2 sequence (P48546 22-466): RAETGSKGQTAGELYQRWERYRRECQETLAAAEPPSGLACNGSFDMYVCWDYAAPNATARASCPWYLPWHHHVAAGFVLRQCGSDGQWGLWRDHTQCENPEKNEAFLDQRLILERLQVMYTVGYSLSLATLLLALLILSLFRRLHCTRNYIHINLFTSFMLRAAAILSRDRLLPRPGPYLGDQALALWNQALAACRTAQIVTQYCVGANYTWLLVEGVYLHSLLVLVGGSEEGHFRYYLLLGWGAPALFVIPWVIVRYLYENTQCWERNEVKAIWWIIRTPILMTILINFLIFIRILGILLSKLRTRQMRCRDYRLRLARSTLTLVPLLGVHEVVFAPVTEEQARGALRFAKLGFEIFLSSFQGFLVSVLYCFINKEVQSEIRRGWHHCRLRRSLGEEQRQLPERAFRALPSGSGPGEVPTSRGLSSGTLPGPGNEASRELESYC
Description: (§1) AD-293 cells were transfected with desired plasmid DNA encoding a SNAP-tagged G-protein coupled receptor (GPCR) 24 h prior to assay. For 1 h internalisation assays, cells were labelled for 10 min with cleavable SNAP-tag probe BG-S-S-649 (New England BioLabs, US). Following 1 h treatment with specified peptide, cells were imaged at baseline and after addition of 2-mercaptoethane sulfonate (Mesna). For 4-hour GPCR surface expression assays, cells were treated with the specified peptide for 4 h, prior to 10-minute labelling with BG-S-S-649 and imaging.
(§2) AD-293 cells were added to a 96-well plate and maintained in 200 μl complete DMEM. […]
(§3) For 1 hour internalisation assays, cells were labelled with cleavable SNAP-tag probe BG-S-S-649 (New England BioLabs, US) in complete DMEM for 10 minutes prior to washing and 1 hour treatment with specified peptide, reconstituted in DMEM + 0.1% BSA. […] GPCR internalisation was quantified as the cell fluorescence following Mesna addition (representing internalised GPCR), corrected for the baseline cell fluorescence (representing total cellular GPCR).
(§4) For 4-hour GPCR surface expression assays, cells were treated with specified peptide for 4 hours in complete DMEM prior to labelling with BG-S-S-649. […] GPCR surface expression following peptide treatment was quantified as cell fluorescence as a percentage of cell fluorescence following vehicle treatment.

SNAP-tagged mouse GIPR = biological target: T3, SNAP-tagged mouse GIPR (Mus musculus, UniProt Q0P543); assay: as above; conditions: 1 μM, 1-hour treatment, BG-S-S-649/Mesna, n = 3–4
T3 construct: host or cells: AD-293
T3 sequence (Q0P543 19-460): T1 sequence (Q0P543 19-460)
Description: as §1, §2, §3, §4

mouse SNAP-tagged GLP-1R = biological target: T4, mouse SNAP-tagged GLP-1R (Mus musculus, UniProt O35659); assay: β-arrestin-2 activation assay (Borealis sensor) in AD-293 cells; conditions: 10 nM, 30-minute stimulation, n = 5–6
T4 construct: host or cells: AD-293
T4 sequence (O35659 22-463): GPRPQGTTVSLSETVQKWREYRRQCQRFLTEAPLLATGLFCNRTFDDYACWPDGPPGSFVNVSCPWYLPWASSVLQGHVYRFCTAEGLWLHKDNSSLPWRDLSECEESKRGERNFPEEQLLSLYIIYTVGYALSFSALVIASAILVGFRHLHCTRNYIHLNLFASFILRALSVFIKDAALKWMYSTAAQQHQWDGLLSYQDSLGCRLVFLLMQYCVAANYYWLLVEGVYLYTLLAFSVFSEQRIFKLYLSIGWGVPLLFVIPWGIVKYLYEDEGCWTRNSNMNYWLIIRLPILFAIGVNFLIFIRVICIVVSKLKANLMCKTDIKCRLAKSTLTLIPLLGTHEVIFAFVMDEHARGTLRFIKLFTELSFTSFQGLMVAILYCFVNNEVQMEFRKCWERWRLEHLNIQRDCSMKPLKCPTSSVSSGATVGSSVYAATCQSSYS
Description: AD-293 cells were transfected with desired plasmid DNA encoding a SNAP-tagged GPCR alongside transduction of Bacmam viral particles encoding the Borealis β-arrestin-2 sensor (Montana Molecular, US) and GRK5 (Montana Molecular, US) 24 h prior to assay. Cells were labelled for 10 min with BG-S-S-649 and imaged at baseline and for 30 min following peptide stimulation. Borealis arrestin sensor fluorescence in BG-S-S-649 labelled cells (representing GPCR expressing cells) was quantified and expressed as a % change from baseline. Full details are provided in the supplementary methods.
AD-293 cells were added to a 96-well plate and maintained in 200 μL complete DMEM. […]
Cells were labelled with cleavable SNAP-tag probe BG-S-S-649 in complete DMEM for 10 minutes prior to washing and imaging. […] Cells were imaged at baseline, registering both BG-S-S-649 fluorescence and borealis arrestin sensor fluorescence. Borealis arrestin sensor fluorescence was then imaged for 30 minutes after peptide addition in intervals of 5 minutes. Borealis arrestin sensor fluorescence in BG-S-S-649 labelled cells was quantified using Fiji v1.54f (NIH) and expressed as a % change from baseline.

Row | β-arrestin-2 activation compared to vehicle control (mouse SNAP-tagged GLP-1R) | Compound | β-arrestin-2 activation compared to vehicle control (mouse SNAP-tagged GIPR) | receptor internalisation compared to vehicle (SNAP-tagged human GIPR; 1-hour treatment, BG-S-S-649/Mesna, n = 3–4) | residual receptor detectable at the cell surface (SNAP-tagged human GIPR; 4 h treatment, post-stimulation labelling, n = 7–8) | receptor internalisation compared to vehicle (SNAP-tagged mouse GIPR)
1 | – | CC[C@H](C)[C@H](NC(=O)[C@H](CO)NC(=O)[C@H](Cc1ccc(O)cc1)NC(=O)[C@H](CC(=O)O)NC(=O)[C@H](CO)NC(=O)[C@@H](NC(=O)[C@H](Cc1ccccc1)NC(=O)[C@@H](NC(=O)CNC(=O)[C@H](CCC(=O)O)NC(=O)C(C)(C)NC(=O)[C@@H](N)Cc1ccc(O)cc1)[C@@H](C)O)[C@@H](C)CC)C(=O)N[C@@H](C)C(=O)N[C@@H](CC(C)C)C(=O)N[C@@H](CC(=O)O)C(=O)N[C@@H](CCCCN)C(=O)N[C@H](C(=O)N[C@@H](Cc1c[nH]cn1)C(=O)N[C@@H](CCC(N)=O)C(=O)N[C@@H](CCC(N)=O)C(=O)N[C@@H](CC(=O)O)C(=O)N[C@@H](Cc1ccccc1)C(=O)N[C@H](C(=O)N[C@@H](CC(N)=O)C(=O)N[C@@H](Cc1c[nH]c2ccccc12)C(=O)N[C@@H](CC(C)C)C(=O)N[C@@H](CC(C)C)C(=O)N[C@@H](C)C(=O)N[C@@H](CCC(N)=O)C(=O)N[C@@H](CCCCN)C(=O)NCC(=O)N[C@@H](CCCCNC(=O)CC[C@H](NC(=O)CCCCCCCCCCCCCCCCCCC(=O)O)C(=O)O)C(=O)N[C@@H](CCCCN)C(=O)N[C@@H](CC(N)=O)C(=O)N[C@@H](CC(=O)O)C(=O)N[C@@H](Cc1c[nH]c2ccccc12)C(=O)N[C@@H](CCCCN)C(=O)N[C@@H](Cc1c[nH]cn1)C(=O)N[C@@H](CC(N)=O)C(=O)N[C@H](C(=O)N[C@H](C(=O)N[C@@H](CCC(N)=O)C(=O)O)[C@@H](C)O)[C@@H](C)CC)C(C)C)[C@@H](C)CC [GIP108] | neither hGIP (1 μM) nor GIP108 (1 μM) resulted in significant increases | increased human GIPR internalisation | reduction in residual human GIPR | did not increase mouse GIPR internalisation
2 | significant β-arrestin-2 activation | GLP-1(7–36)·NH2 | – | – | – | –
